US8101768B2, “Cyclic amine compound and pest control agent” (Nippon Soda Co., Ltd., priority 2004, dated 2012)

Test system: organophosphorous agent resistant two-spotted spider mites
Assay: Effect on Two-spotted Spider Mite (spray on kidney bean leaves)
Assay type: in vivo
Conditions: 125 ppm, water dispersible powder of Formulation Example 1 sprayed, 17 female adults, 25° C., 65% humidity, 3 days
Source text: Effect on Two-spotted Spider Mite
17 female adults of organophosphorous agent resistant two-spotted spider mites were inoculated onto the first leaves of kidney beans seeded onto 3.5 inch pots and germinated 7 to 10 days before, onto which each of liquid agents, diluted with water so as to adjust the respective concentration of the chemical compounds to 125 ppm according to the formulation of the water dispersible powder shown in the aforementioned Formulation Example 1, was sprayed. After they were left in a thermostatic chamber at 25° C. in 65% humidity for 3 days, the rate of killed adults was investigated. The examination was repeated twice. As the results, the following chemical compounds killed 100% of the adults.

Row | SMILES | rate of killed adults [%]
1 | CC(O)COc1cc(C(F)(F)F)ccc1OC1CC2CCC(C1)N2c1ccc(C(F)(F)F)cn1 (stereo not shown) [2-173] | 100
2 | CC(=O)OC(C)COc1cc(C(F)(F)F)ccc1O[C@@H]1[C@@H]2CC[C@H]1CN(c1ccc(C(F)(F)F)cn1)C2 (stereo partly shown) [5-114] | 100
3 | O=C(OC1CCOC1)c1cc(C(F)(F)F)ccc1OC1CC2CCC(C1)N2c1ccc(C(F)(F)F)cn1 (stereo not shown) [2-225] | 100
4 | CCCCOc1cc(C(F)(F)F)ccc1OC1CCN(c2ccc(C(F)(F)F)cn2)CC1 [1-101] | 100
5 | CC(C)Oc1cc(C(F)(F)F)ccc1OC1CC2CCC(C1)N2c1ccc(C(F)(F)F)cn1 (stereo not shown) [2-96] | 100
6 | CS(=O)(=O)Oc1cc(C(F)(F)F)ccc1OC1C2CCC1CN(c1ccc(C(F)(F)F)cn1)C2 (stereo not shown) [5-161] | 100
7 | CCCOc1cc(C(F)(F)F)ccc1O[C@@H]1[C@@H]2CC[C@H]1CN(c1ccc(C=O)cn1)C2 [5-100] | 100
8 | CCC(O)c1cc(C(F)(F)F)ccc1OC1CCN(c2ccc(C(F)(F)F)cn2)CC1 (stereo not shown) [1-67] | 100
9 | Cc1coc(-c2cc(C(F)(F)F)ccc2OC2CC3CCC(C2)N3c2ccc(C(F)(F)F)cn2)n1 (stereo not shown) [2-209] | 100
10 | CC(C)=COc1cc(C(F)(F)F)ccc1O[C@H]1C[C@H]2CC[C@@H](C1)N2c1ccc(C(F)(F)F)cn1 [2-245, 3α-[2-(2-methylpropenyloxy)-4-(trifluoromethyl)phenoxy]-8-[5-(trifluoromethyl)-2-pyridyl]-8-azabicyclo[3.2.1]octane] | 100
11 | CCCC(=O)Oc1cc(C(F)(F)F)ccc1OC1C2CCC1CN(c1ccc(C(F)(F)F)cn1)C2 (stereo not shown) [5-199] | 100
12 | CC(C)(C)CC(O)c1cc(C(F)(F)F)ccc1O[C@@H]1[C@@H]2CC[C@H]1CN(c1ccc(C(F)(F)F)cn1)C2 (stereo partly shown) [5-255] | 100
13 | FC(F)(F)c1ccc(N2C3CCC2CC(Oc2ccc(C(F)(F)F)cc2ON=C2CCCC2)C3)nc1 (stereo not shown) [2-227] | 100
14 | CCC(=O)Oc1cc(C(F)(F)F)ccc1OC1C2CCC1CN(c1ccc(C(F)(F)F)cn1)C2 (stereo not shown) [5-198] | 100
15 | CCCOc1cc(C(F)(F)F)ccc1OC1CC2CCC(C1)[N+]2([O-])c1ccc(C(F)(F)F)cn1 (stereo not drawn) [2-84, 3α-[2-propoxy-4-(trifluoromethyl)phenoxy]-8-oxy-8-[5-(trifluoromethyl)-2-pyridyl]-8-azabicyclo[3.2.1]octane] | 100
16 | CCCOc1cc(C(F)(F)F)ccc1OC1CC2CCC(C1)N2c1ccc(Br)cn1 (stereo not shown) [2-86] | 100
17 | CC=NOc1cc(C(F)(F)F)ccc1OC1CC2CCC(C1)N2c1ccc(C(F)(F)F)cn1 (mixture of isomers) [2-213] | 100
18 | C=CCOc1cc(C(F)(F)F)ccc1OC1CC2CCC(C1)N2c1ccc(C(F)(F)F)cn1 (stereo not shown) [2-141] | 100
19 | N#Cc1cc(C(F)(F)F)ccc1O[C@@H]1[C@@H]2CC[C@H]1CN(c1ccc(C(F)(F)F)cn1)C2 [5-32] | 100
20 | FC(F)(F)c1ccc(O[C@@H]2[C@@H]3CC[C@H]2CN(c2ccc(C(F)(F)F)cn2)C3)cc1 [5-264] | 100
21 | CCCS(=O)(=O)Oc1cc(C(F)(F)F)ccc1OC1C2CCC1CN(c1ccc(C(F)(F)F)cn1)C2 (stereo not shown) [5-163] | 100
22 | C=C=COc1cc(C(F)(F)F)ccc1OC1CCN(c2ccc(C(F)(F)F)cn2)CC1 [1-143] | 100
23 | FC(F)(F)c1ccc(N2CCC(Oc3ccc(Cl)cc3)CC2)nc1 [1-10] | 100

Row | SMILES | rate of killed adults [%]
24 | CC(C)(C)C(=O)Oc1cc(C(F)(F)F)ccc1OC1CC2CCC(C1)N2c1ccc(C(F)(F)F)cn1 (stereo not shown) [2-150] | 100
25 | Cc1ccc(OC2CCN(c3ccc(C(F)(F)F)cn3)CC2)c(C)c1 [1-44] | 100
26 | CCCOC(=O)c1cc(C(F)(F)F)ccc1O[C@@H]1[C@@H]2CC[C@H]1CN(c1ccc(C(F)(F)F)cn1)C2 [5-244] | 100
27 | OCCOc1cc(C(F)(F)F)ccc1OC1CC2CCC(C1)N2c1ccc(C(F)(F)F)cn1 (stereo not shown) [2-115] | 100
28 | CC(C)C(C)OC(=O)c1cc(C(F)(F)F)ccc1OC1CC2CCC(C1)N2c1ccc(C(F)(F)F)cn1 (stereo not shown) [2-232] | 100
29 | CCCN(CCC)c1cc(C(F)(F)F)ccc1OC1CC2CCC(C1)N2c1ccc(C(F)(F)F)cn1 (stereo not shown) [2-159] | 100
30 | CCCSc1cc(C(F)(F)F)ccc1OC1CC2CCC(C1)N2c1ccc(C(F)(F)F)cn1 (stereo not shown) [2-165] | 100
31 | FC(F)(F)c1ccc(N2CCC(Oc3ccc(C(F)(F)F)cc3OCCBr)CC2)nc1 [1-139] | 100
32 | CC(C)OC(=O)c1cc(C(F)(F)F)ccc1OC1CC2CCC(C1)N2c1ccc(C(F)(F)F)cn1 (stereo not shown) [2-196] | 100
33 | FC(F)(F)c1ccc(N2CCC(Oc3ccc(C(F)(F)F)cc3COC3CCCO3)CC2)nc1 (stereo not shown) [1-180] | 100
34 | CC(Cl)COc1cc(C(F)(F)F)ccc1OC1C2CCC1CN(c1ccc(C(F)(F)F)cn1)C2 (stereo not shown) [5-138] | 100
35 | COC=Cc1cc(C(F)(F)F)ccc1O[C@@H]1[C@@H]2CC[C@H]1CN(c1ccc(C(F)(F)F)cn1)C2 [5-247] | 100
36 | CCON=Cc1cc(C(F)(F)F)ccc1OC1CC2CCC(C1)N2c1ccc(C(F)(F)F)cn1 (stereo not shown) [2-203] | 100
37 | CCOC(C)COc1cc(C(F)(F)F)ccc1OC1CC2CCC(C1)N2c1ccc(C(F)(F)F)cn1 (stereo not shown) [2-175] | 100
38 | CCN(C)C(=O)c1cc(C(F)(F)F)ccc1O[C@@H]1[C@@H]2CC[C@H]1CN(c1ccc(C(F)(F)F)cn1)C2 [5-249] | 100
39 | COC(C)COc1cc(C(F)(F)F)ccc1OC1CC2CCC(C1)[N+]2([O-])c1ccc(C(F)(F)F)cn1 (stereo not shown) [2-174] | 100
40 | COCOc1cc(C(F)(F)F)ccc1OC1CC2CCC(C1)N2c1ccc(C(F)(F)F)cn1 (stereo not drawn) [2-102, 3α-[2-methoxymethoxy-4-(trifluoromethyl)phenoxy]-8-[5-(trifluoromethyl)-2-pyridyl]-8-azabicyclo[3.2.1]octane] | 100
41 | COCCOc1cc(C(F)(F)F)ccc1O[C@@H]1[C@@H]2CC[C@H]1CN(c1ccc(C#N)cn1)C2 [5-125] | 100
42 | FC(F)(F)c1ccc(N2C3CCC2CC(Oc2ccc(C(F)(F)F)cc2OCC2CC2)C3)nc1 (stereo not shown) [2-105] | 100
43 | FC(F)(F)c1ccc(N2CCC(Oc3ccc(C(F)(F)F)cc3CCl)CC2)nc1 [1-81] | 100
44 | CC(C)=NOc1cc(C(F)(F)F)ccc1OC1CC2CCC(C1)N2c1ccc(C(F)(F)F)cn1 (stereo not drawn) [2-212, 3α-[2-isopropylideneaminoxy-4-(trifluoromethyl)phenoxy]-8-[5-(trifluoromethyl)-2-pyridyl]-8-azabicyclo[3.2.1]octane] | 100
45 | Cc1noc(-c2cc(C(F)(F)F)ccc2OC2CC3CCC(C2)N3c2ccc(C(F)(F)F)cn2)n1 (stereo not shown) [2-200] | 100
46 | FC(F)(F)c1ccc(N2CC3CCC(C2)C3Oc2ccc(C(F)(F)F)cc2OCC2CCOC2)nc1 (stereo not shown) [5-205] | 100
